Results taken from patent US11155517B2, “4-substituted phenylamine derivatives and their use to protect crops by fighting undesired phytopathogenic micoorganisms” (PI INDUSTRIES LTD., priority 2016, dated 2021).

Legend:
Type in all cases: cell-based
Septoria lycopersici = Septoria lycopersici (leaf spot of tomato) in vitro test, radial growth on Potato Dextrose Agar; settings: 168 h, seven days, 25° C., read-out: % control compared to the untreated check (radial growth)
Colletotrichum capsici = Colletotrichum capsici (anthracnose) in vitro test, radial growth on Potato Dextrose Agar; settings: Colletotrichum truncatum, 168 h; 300 ppm; seven days, 25° C.; read-out: % control compared to the untreated check (radial growth)
Pyricularia oryzae = test: microbe, parasite or virus in culture; settings: 168 h, read-out: % control compared to the untreated check (radial growth)
Rhizoctonia solani = Rhizoctonia solani (rice sheath blight/potato black scurf) in vitro test, radial growth on Potato Dextrose Agar; settings: 168 h, 300 ppm, seven days, 25° C., read-out: % control compared to the untreated check (radial growth)
Botrytis cinerea = Botrytis cinerea (gray mold) in vitro test, radial growth on Potato Dextrose Agar; settings: 168 h, 300 ppm, seven days, 22° C., read-out: % (control) compared to the untreated check (radial growth)
Fusarium culmorum = Fusarium culmorum (foot rot of cereals) in vitro test, radial growth on Potato Dextrose Agar; settings: Fusarium culmorum, 168 h, read-out: % control compared to the untreated check (radial growth)
Alternaria solani = Alternaria solani (early blight of tomato/potato) in vitro test, radial growth on Potato Dextrose Agar; settings: 168 h, 300 ppm, seven days, 25° C., read-out: % control compared to the untreated check (radial growth)

SMILES | inhibition of growth at 300 ppm (Septoria lycopersici) | inhibition of growth at 300 ppm (Colletotrichum capsici) | inhibition of growth at 300 ppm (Pyricularia oryzae) | inhibition of growth at 300 ppm (Rhizoctonia solani) | inhibition of growth at 300 ppm (Botrytis cinerea) | inhibition of growth at 300 ppm (Fusarium culmorum) | inhibition of growth at 300 ppm (Alternaria solani)
CCN(C)C=Nc1cc(C)c(Cc2cccc(OC)c2)cc1C [Compound 45, N-ethyl-N′-(4-(3-methoxybenzyl)-2,5-dimethylphenyl)-N-methylformimidamide] | > 70% | > 80% | > 75% | > 80% | > 80% | 75% | > 75%
CCN(C)C=Nc1cc(C)c(Cc2cccc(C(F)(F)F)c2)cc1C [Compound 46, N′-(2,5-dimethyl-4-(3-(trifluoromethyl)benzyl)phenyl)-N-ethyl-N-methylformimidamide] | > 70% | > 80% | > 75% | > 80% | > 80% | 75% | > 75%
CCN(C)C=Nc1cc(C)c(Cc2cccc(C#N)c2)cc1C [Compound 47, N′-(4-(3-cyanobenzyl)-2,5-dimethylphenyl)-N-ethyl-N-methylformimidamide] | > 70% | > 80% | > 75% | > 80% | > 80% | 75% | > 75%
CCN(C)C=Nc1cc(C)c(Cc2cccc([N+](=O)[O-])c2)cc1C [Compound 49, N′-(2,5-dimethyl-4-(3-nitrobenzyl)phenyl)-N-ethyl-N-methylformimidamide] | > 70% | > 80% | > 75% | > 80% | > 80% | 75% | > 75%
CCN(C)C=Nc1cc(C)c(Cc2cc(F)cc(C(F)(F)F)c2)cc1C [Compound 52, N-ethyl-N′-(4-(3-fluoro-5-(trifluoromethyl)benzyl)-2,5-dimethylphenyl)-N-methylformimidamide] | > 70% | > 80% | > 75% | > 80% | > 80% | 75% | > 75%
CCN(C)C=Nc1cc(C)c(Cc2cc(C(F)(F)F)ccc2C)cc1C [Compound 53, N′-(2,5-dimethyl-4-(2-methyl-5-(trifluoromethyl)benzyl)phenyl)-N-ethyl-N-methylformimidamide] | > 70% | > 80% |  |  | > 80% | 75% | > 75%
CCN(C)C=Nc1cc(C)c(Cc2ccc(OC)cc2)cc1C [Compound 54, N-ethyl-N′-(4-(4-methoxybenzyl)-2,5-dimethylphenyl)-N-methylformimidamide] | > 70% | > 80% | > 75% | > 80% | > 80% | 75% | > 75%
Cc1cc(N=CN2CCCCC2)c(C)cc1Cc1ccccc1F [Compound 58, N-(4-(2-fluorobenzyl)-2,5-dimethylphenyl)-1-(piperidin-1-yl)methanimine] | > 70% | > 80% | > 75% | > 80% | > 80% | 75% | > 75%
Cc1cc(N=CN2CCCCC2)c(C)cc1Cc1ccc(F)cc1 [Compound 60, N-(4-(4-fluorobenzyl)-2,5-dimethylphenyl)-1-(piperidin-1-yl)methanimine] | > 70% | > 80% | > 75% | > 80% | > 80% | 75% | > 75%
Cc1cc(N=CNC(C)C)c(C)cc1Cc1ccccc1F [Compound 66, N′-(4-(2-fluorobenzyl)-2,5-dimethylphenyl)-N-isopropylformimidamide] | > 70% | > 80% | > 75% | > 80% | > 80% | 75% | > 75%
Cc1cc(N=CNC(C)C)c(C)cc1Cc1ccccc1Cl [Compound 67, N′-(4-(2-chlorobenzyl)-2,5-dimethylphenyl)-N-isopropylformimidamide] | > 70% | > 80% | > 75% | > 80% | > 80% | 75% | > 75%
CCN(C)C=Nc1cc(C)c(Cc2ccc(OC)cc2)cc1Cl [Compound 69, N′-(2-chloro-4-(4-methoxybenzyl)-5-methylphenyl)-N-ethyl-N-methylformimidamide] | > 70% | > 80% | > 75% | > 80% | > 80% | 75% | > 75%
CCN(C)C=Nc1cc(C)c(Cc2cccc(OC)c2)cc1Cl [Compound 70, N′-(2-chloro-4-(3-methoxybenzyl)-5-methylphenyl)-N-ethyl-N-methylformimidamide] | > 70% | > 80% | > 75% | > 80% | > 80% | 75% | > 75%
CCN(C)C=Nc1cc(C)c(Cc2cccc(C#N)c2)cc1Cl [Compound 72, N′-(2-chloro-4-(3-cyanobenzyl)-5-methylphenyl)-N-ethyl-N-methylformimidamide] | > 70% | > 80% | > 75% | > 80% |  | 75% | > 75%
Cc1cc(N=CN(C)C(C)C)c(C)cc1Cc1ccccc1Cl [Compound 82, N′-(4-(2-chlorobenzyl)-2,5-dimethylphenyl)-N-isopropyl-N-methylformimidamide] | > 70% | > 80% | > 75% | > 80% | > 80% | 75% | > 75%
C=CCN(C)C=Nc1cc(C)c(Cc2ccccc2F)cc1C [Compound 83, N-allyl-N′-(4-(2-fluorobenzyl)-2,5-dimethylphenyl)-N-methylformimidamide] | > 70% | > 80% | > 75% | > 80% | > 80% | 75% | > 75%
C=CCN(C)C=Nc1cc(C)c(Cc2ccccc2Cl)cc1C [Compound 84, N-allyl-N′-(4-(2-chlorobenzyl)-2,5-dimethylphenyl)-N-methylformimidamide] | > 70% | > 80% | > 75% | > 80% | > 80% | 75% | > 75%
CCN(C)C=Nc1cc(C)c(Cc2ccc(SC(F)(F)F)cc2)cc1C [Compound 92, N′-(2,5-dimethyl-4-(4-((trifluoromethyl)thio)benzyl)phenyl)-N-ethyl-N-methylformimidamide] | > 70% | > 80% | > 75% | > 80% | > 80% | 75% | > 75%
CCN(C)C=Nc1cc(C)c(Cc2cccc(N(C)C)c2)cc1C [Compound 111, N′-(4-(3-(dimethylamino)benzyl)-2,5-dimethylphenyl)-N-ethyl-N-methylformimidamide] | > 70% | > 80% | > 75% | > 80% |  | 75% | > 75%
CCN(C)C=Nc1cc(C)c(/C(=N\C)c2ccccc2C)cc1C [Compound 215, N′-(2,5-dimethyl-4-((Z)-(methylimino)(o-tolyl)methyl)phenyl)-N-ethyl-N-methylformimidamide] | > 70% | > 80% | > 75% | > 80% |  | 75% | > 75%
CCN(C)C=Nc1cc(Cl)c(Cc2cccc(C)c2)cc1C [Compound 260, N′-(5-chloro-2-methyl-4-(3-methylbenzyl)phenyl)-N-ethyl-N-methylformimidamide] | > 70% | > 80% | > 75% |  | > 80% | 75% | > 75%
